The record followed here is ChEMBL document CHEMBL4145686, “Discovery of a Potent and Selective Steroidal Glucocorticoid Receptor Antagonist (ORIC-101)” (J Med Chem, 2018).

The target of one data set is Cytochrome P450 3A4 (Homo sapiens, UniProt P08684). The data set is described as follows: Inhibition of CYP3A4 (unknown origin) using midazolam as substrate. The format is ADME.
Data set [1] can be described thus: Cmax in rat at 5 mg/kg, po. Details: dose 5 mg/kg, route oral. Conditions: in vivo. The format is ADME, organism-based.
In data set [2] the target is T1, Glucocorticoid receptor (Homo sapiens, UniProt P04150).
T1 sequence (P04150 whole entry): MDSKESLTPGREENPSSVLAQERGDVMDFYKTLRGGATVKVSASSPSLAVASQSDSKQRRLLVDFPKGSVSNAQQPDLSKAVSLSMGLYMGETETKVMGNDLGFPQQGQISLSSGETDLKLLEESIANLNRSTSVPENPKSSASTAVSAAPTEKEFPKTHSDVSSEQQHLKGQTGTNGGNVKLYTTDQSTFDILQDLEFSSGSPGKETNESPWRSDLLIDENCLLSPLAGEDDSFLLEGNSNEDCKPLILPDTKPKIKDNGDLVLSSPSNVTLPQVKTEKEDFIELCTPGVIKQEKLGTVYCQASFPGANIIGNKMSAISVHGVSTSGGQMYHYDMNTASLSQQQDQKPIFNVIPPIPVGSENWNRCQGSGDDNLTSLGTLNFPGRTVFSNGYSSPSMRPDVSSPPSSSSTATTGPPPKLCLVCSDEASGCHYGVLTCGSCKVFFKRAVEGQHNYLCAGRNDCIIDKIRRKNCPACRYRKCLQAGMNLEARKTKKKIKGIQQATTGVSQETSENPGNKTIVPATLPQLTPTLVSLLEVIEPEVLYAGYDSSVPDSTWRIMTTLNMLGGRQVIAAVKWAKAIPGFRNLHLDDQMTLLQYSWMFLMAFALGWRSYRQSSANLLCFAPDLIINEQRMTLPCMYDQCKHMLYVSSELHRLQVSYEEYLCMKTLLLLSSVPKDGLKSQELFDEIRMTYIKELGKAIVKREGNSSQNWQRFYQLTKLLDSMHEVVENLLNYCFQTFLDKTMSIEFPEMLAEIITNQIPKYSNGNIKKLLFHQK
Description: Antagonist activity at human GR expressed in CHO-K1 cells assessed as reduction in dexamethasone-induced response incubated for 20 hrs by luciferase reporter gene assay. The format is cell-based. For orientation: In a reporter assay the amount or activity of a reporter protein is the signal.

The nature of data set [3]: AUC in rat at 5 mg/kg, po. The class given is ADME, organism-based. Conditions: in vivo.
Data set [4] can be described thus: Clearance in rat at 0.5 mg/kg, iv. The format is ADME, organism-based. The conditions noted are these: in vivo.
Data set [5] in a line: Volume of distribution at steady state in rat at 0.5 mg/kg, iv. The format is ADME, organism-based. The conditions noted are these: in vivo, read-out: Vdss.
The target in a further data set is T2, Cytochrome P450 2C8 (Homo sapiens, UniProt P10632).
T2 sequence (P10632 whole entry): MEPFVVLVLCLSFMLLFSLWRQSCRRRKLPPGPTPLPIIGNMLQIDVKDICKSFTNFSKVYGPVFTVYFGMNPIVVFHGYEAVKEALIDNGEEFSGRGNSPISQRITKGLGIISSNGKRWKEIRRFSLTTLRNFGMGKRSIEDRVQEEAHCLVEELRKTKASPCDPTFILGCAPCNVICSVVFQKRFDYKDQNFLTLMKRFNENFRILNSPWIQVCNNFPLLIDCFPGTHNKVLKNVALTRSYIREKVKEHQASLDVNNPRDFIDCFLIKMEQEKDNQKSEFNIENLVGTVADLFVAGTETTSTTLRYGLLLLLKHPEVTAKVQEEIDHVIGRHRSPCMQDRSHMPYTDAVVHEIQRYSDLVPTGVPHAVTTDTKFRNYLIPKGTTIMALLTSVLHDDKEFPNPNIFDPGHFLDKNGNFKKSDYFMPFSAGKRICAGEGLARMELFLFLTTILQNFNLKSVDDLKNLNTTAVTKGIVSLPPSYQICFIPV
Description: Inhibition of CYP2C8 (unknown origin) using […] as substrate. The format is ADME.

Data set [6] in a line: Half life in rat at 0.5 mg/kg, iv. The class given is ADME, organism-based. Conditions: in vivo.
Data set [7] is described as follows: Oral bioavailability in rat at 5 mg/kg. The class given is ADME, organism-based. The conditions noted are these: in vivo.
The target of the next data set is T3, Androgen receptor (Homo sapiens, UniProt P10275).
T3 sequence (P10275 whole entry): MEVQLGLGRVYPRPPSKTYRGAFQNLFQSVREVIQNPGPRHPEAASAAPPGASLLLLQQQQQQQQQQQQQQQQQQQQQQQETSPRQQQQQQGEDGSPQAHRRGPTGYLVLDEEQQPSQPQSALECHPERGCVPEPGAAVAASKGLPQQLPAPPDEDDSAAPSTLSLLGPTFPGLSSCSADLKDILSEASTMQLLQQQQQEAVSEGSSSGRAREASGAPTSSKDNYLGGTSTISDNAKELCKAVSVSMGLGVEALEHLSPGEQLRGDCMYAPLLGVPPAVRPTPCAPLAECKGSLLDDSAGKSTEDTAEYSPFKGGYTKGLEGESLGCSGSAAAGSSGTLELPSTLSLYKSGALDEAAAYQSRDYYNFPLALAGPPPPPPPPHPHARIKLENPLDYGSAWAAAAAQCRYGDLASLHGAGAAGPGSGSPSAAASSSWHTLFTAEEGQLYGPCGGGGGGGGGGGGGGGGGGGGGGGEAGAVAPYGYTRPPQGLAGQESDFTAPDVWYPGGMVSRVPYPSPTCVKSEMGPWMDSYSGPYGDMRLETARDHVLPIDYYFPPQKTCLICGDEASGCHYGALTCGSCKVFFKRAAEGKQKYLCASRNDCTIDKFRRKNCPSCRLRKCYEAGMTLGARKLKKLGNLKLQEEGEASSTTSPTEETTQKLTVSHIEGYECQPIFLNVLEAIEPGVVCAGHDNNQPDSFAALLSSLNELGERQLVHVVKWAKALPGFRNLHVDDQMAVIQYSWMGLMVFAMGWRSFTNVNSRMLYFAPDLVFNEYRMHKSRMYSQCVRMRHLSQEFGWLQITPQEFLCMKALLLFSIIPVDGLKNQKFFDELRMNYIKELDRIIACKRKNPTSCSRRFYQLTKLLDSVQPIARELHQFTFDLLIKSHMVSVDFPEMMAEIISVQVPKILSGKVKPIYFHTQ
The data set is described as follows: Agonist activity at AR (unknown origin) expressed in human LNCaP cells incubated for 20 hrs by luciferase reporter gene assay. The format is cell-based.

The next data set deals with Cytochrome P450 2C9 (Homo sapiens, UniProt P11712). The data set is described as follows: Inhibition of CYP2C9 (unknown origin) using […] as substrate. The class given is ADME.
Sequence of Cytochrome P450 2C9 (P11712 whole entry): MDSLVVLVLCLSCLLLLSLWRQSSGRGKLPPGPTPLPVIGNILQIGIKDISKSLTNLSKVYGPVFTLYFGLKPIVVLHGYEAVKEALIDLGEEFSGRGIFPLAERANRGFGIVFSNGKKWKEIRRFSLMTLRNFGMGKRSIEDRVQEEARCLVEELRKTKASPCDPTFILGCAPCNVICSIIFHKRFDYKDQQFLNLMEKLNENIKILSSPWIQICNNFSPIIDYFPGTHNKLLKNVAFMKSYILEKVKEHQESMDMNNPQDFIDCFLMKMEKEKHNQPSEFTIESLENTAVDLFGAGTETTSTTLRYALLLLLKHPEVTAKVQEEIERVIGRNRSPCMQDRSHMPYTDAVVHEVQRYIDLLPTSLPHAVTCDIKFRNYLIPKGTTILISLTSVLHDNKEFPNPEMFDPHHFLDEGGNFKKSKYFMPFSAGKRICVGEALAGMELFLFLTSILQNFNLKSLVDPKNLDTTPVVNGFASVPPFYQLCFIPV
In data set [8] the target is T4, glucocorticoid receptor (GR) (Homo sapiens, UniProt P04150).
T4 sequence (P04150 whole entry): T1 sequence (P04150 whole entry)
The data set is described as follows: Agonist activity at human GR expressed in CHO-K1 cells incubated for 20 hrs by luciferase reporter gene assay relative to dexamethasone. The format is cell-based. The conditions noted are these: CHO-K1 cells expressing human GR.

Data set [9] addresses T1, Glucocorticoid receptor. Description: Agonist activity at human GR expressed in CHO-K1 cells incubated for 20 hrs by luciferase reporter gene assay. The format is cell-based.
The next data set concerns the target T5, androgen receptor (AR) (Homo sapiens, UniProt P10275).
T5 sequence (P10275 whole entry): T3 sequence (P10275 whole entry)
Description: Agonist activity at AR (unknown origin) expressed in human LNCaP cells incubated for 20 hrs by luciferase reporter gene assay relative to mifepristone. The format is cell-based. Conditions: human LNCaP cells expressing AR.

Sequence of Cytochrome P450 3A4 (P08684 whole entry): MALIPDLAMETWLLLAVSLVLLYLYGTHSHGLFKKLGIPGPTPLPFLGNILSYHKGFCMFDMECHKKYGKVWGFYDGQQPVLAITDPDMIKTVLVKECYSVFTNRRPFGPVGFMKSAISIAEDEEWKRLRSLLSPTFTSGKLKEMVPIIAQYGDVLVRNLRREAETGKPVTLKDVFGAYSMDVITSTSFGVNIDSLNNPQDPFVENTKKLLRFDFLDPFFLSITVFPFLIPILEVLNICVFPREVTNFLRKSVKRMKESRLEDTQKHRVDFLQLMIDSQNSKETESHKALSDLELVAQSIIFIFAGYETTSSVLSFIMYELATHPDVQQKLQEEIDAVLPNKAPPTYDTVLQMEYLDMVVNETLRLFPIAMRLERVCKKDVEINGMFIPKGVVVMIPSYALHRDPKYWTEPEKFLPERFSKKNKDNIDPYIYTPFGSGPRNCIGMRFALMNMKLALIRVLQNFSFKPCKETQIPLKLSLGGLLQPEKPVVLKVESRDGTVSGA

For orientation: IC50 means the concentration that gives 50% inhibition. In general, Cmax refers to the highest concentration seen after dosing. One may read the AUC as the area under the concentration-time curve, a measure of exposure. High values mean high exposure, low ones low exposure. As usually defined, the clearance is the volume of plasma or blood freed of the substance per unit of time. The low end stands for inefficient removal, the high end for efficient removal. A word on the half-life: it is how long it takes for the measured level to halve. Read a low half-life as fast loss. Usually bioavailability stands for dose-corrected exposure relative to a reference, in per cent. One may read the EC50 as the concentration needed to bring the measured effect to its halfway point. In general, Emax refers to the greatest response seen or fitted, relative to the assay's reference. For the compound `CN(C)c1ccc([C@H]2C[C@@]3(C)[C@@H](CC[C@@]3(O)C#CC(C)(C)C)[C@@H]3CCC4=CC(=O)CCC4=C32)cc1`, the concentration for half-maximal inhibition (IC50) on Cytochrome P450 3A4 is 2900 nM; at Glucocorticoid receptor [2], 14.6 nM; on Cytochrome P450 2C8, over 10 µM; on Cytochrome P450 2C9 it was over 10 µM. In data set [1], this compound registered a Cmax of 72 ng/mL. In addition, the AUC in data set [3] was 471 ng·h/mL. This compound also had a clearance in [4] of 66.7 mL/min/kg. In addition, the Vd in [5] worked out at 4.9 L/kg. This compound gave a half-life in data set [6] of 114 min. Moreover, the bioavailability in [7] is 37%. In addition, the EC50 on Androgen receptor and at Glucocorticoid receptor [9] was over 2500 nM throughout. Further, the Emax at 20 h was 1.4% in data set [8] and 13.4% at androgen receptor (AR).
With `COC(C)(C)C#C[C@]1(O)CC[C@H]2[C@@H]3CCC4=CC(=O)CC[C@@H]4[C@H]3[C@@H](c3ccc(N(C)C)cc3)C[C@@]21C`, in [1], the highest level (Cmax) was 295 ng/mL. Also, the IC50 on Glucocorticoid receptor [2] was 14.6 nM. This compound came in with an area under the curve (AUC) in [3] of 544 ng·h/mL. This compound showed a clearance in [4] of 83.3 mL/min/kg. The Vd in data set [5] is 7.2 L/kg. The half-life in data set [6] was 144 min. The compound also gave a bioavailability in data set [7] of 54%. For the same compound, the EC50 at Androgen receptor and at Glucocorticoid receptor [9] was over 2500 nM throughout. The maximal effect (Emax) at 20 h in [8] was 1.7%; on androgen receptor (AR), 10.6%.
Take `CC(C)(C)C#C[C@]1(O)CC[C@H]2[C@@H]3CCC4=CC(=O)CCC4=C3[C@@H](c3ccc(C4(C)COC4)cc3)C[C@@]21C`: in data set [1], the peak level (Cmax) was 59 ng/mL. Besides, the IC50 on Glucocorticoid receptor [2] was 9.6 nM. The compound also yielded an AUC in data set [3] of 123 ng·h/mL. This compound also showed a clearance in data set [4] of 50 mL/min/kg. Besides, the Vd in [5] came out at 6.7 L/kg. In [6], the half-life was 264 min. The compound further returned a bioavailability in [7] of 7.2%. Also, the EC50 on Androgen receptor and on Glucocorticoid receptor [9] was over 2500 nM each time. The maximum response (Emax) at 20 h in data set [8] turned out to be 2.2%; at androgen receptor (AR), 11%.
For `CC(C)N(C)c1ccc([C@H]2C[C@@]3(C)[C@@H](CC[C@@]3(O)C#CC(C)(C)C)[C@@H]3CCC4=CC(=O)CCC4=C32)cc1`, the highest level in [1] (Cmax) was 59 ng/mL. Besides, the IC50 on Glucocorticoid receptor [2] was 43 nM. In data set [3], this compound came in with an AUC of 290 ng·h/mL. The compound also showed a clearance in [4] of 66.7 mL/min/kg. For the same compound, in data set [5], the Vd was found to be 4.7 L/kg. This compound had a half-life in [6] of 90 min. The same compound registered a bioavailability in data set [7] of 23%. The EC50 at Androgen receptor and on Glucocorticoid receptor [9] was over 2500 nM each time. Further, the Emax at 20 h in [8] was determined as 1.7%; on androgen receptor (AR), 8.2%.
`CC(C)(C)C#C[C@]1(O)CC[C@H]2[C@@H]3CCC4=CC(=O)CCC4=C3[C@@H](c3ccc(N4CCCC4)cc3)C[C@@]21C` returned a Cmax in data set [1] of 21 ng/mL. Further, the IC50 on Glucocorticoid receptor [2] turned out to be 19.5 nM. Further, the AUC in data set [3] was 167 ng·h/mL. Further, the clearance in [4] is 4.67 mL/min/kg. The Vd in [5] is 1.5 L/kg. Moreover, the half-life in [6] is 216 min. In [7], this compound returned a bioavailability of 0.7%. For the same compound, the EC50 on Androgen receptor and on Glucocorticoid receptor [9] was over 2500 nM in each case. In addition, the maximal response (Emax) at 20 h in data set [8] came to 1.2%; on androgen receptor (AR), 13.3%.
